Test results: US9771353B2, “Kinase inhibitors based upon N-alkyl pyrazoles” (RESPIVERT LIMITED, priority 2013, dated 2017)

Assays:
PBMCs [1] = experiment: LPS-induced TNFα/IL-8 release in PBMC cells, assay (b); format: cell-based; details: Homo sapiens, LPS-stimulated PBMCs, read-out: IC50 Values for Inhibition of Cytokine Release, PBMCs IL-8
Description: Peripheral blood mononuclear cells (PBMCs) from healthy subjects are separated from whole blood using a density gradient (Lymphoprep, Axis-Shield Healthcare). The PBMCs are seeded in 96 well plates and treated with compounds at the desired concentration for 2 hours before addition of 1 ng/mL LPS (Escherichia Coli 0111:B4 from Sigma Aldrich) for 24 hours under normal tissue culture conditions (37° C., 5% CO2). The supernatant is harvested for determination of IL-8 and TNFα concentrations by sandwich ELISA (Duo-set, R&D systems) and read on the fluorescence microplate reader (Varioskan® Flash, ThermoFisher Scientific).

GSK3α = GSK3α (Homo sapiens (Human), UniProt P49840); experiment: GSK 3α enzyme inhibition (FRET, Z-LYTE), Method 2; format: biochemical
Chain of GSK3α (P49840 whole entry): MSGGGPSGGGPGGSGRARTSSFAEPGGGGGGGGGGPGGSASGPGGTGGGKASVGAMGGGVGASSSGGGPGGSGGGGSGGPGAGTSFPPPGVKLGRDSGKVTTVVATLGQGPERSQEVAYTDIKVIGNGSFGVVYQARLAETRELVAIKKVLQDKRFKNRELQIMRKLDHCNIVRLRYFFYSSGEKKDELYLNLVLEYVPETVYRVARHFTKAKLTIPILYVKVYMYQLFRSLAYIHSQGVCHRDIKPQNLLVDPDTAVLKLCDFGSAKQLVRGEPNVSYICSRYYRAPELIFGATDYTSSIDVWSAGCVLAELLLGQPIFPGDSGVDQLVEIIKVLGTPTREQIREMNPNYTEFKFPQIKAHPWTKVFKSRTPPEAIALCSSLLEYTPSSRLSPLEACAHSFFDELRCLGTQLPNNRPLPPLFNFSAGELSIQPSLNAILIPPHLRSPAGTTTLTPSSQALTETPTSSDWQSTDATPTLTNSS
Description: (§1) The enzyme inhibitory activities of compounds disclosed herein are determined by FRET using synthetic peptides labelled with both donor and acceptor fluorophores (Z-LYTE, Invitrogen Ltd., Paisley, UK).
The inhibitory activities of compounds of the invention against the GSK 3α enzyme isoform (Invitrogen), are evaluated by determining the level of activation/phosphorylation of the target peptide. The GSK3-α protein (500 ng/mL, 2.5 μL) is mixed with the test compound (2.5 μL at either 4 μg/mL, 0.4 μg/mL, 0.04 μg/mL, or 0.004 μg/mL) for 2 hr at RT. The FRET peptide (8 μM, 2.5 μL), which is a phosphorylation target for GSK3α, and ATP (40 μM, 2.5 μL) are then added to the enzyme/compound mixture and the resulting mixture incubated for 1 hr. Development reagent (protease, 5 μL) is added for 1 hr prior to detection in a fluorescence microplate reader (Varioskan® Flash, ThermoFisher Scientific).
(§2) In all cases, the site-specific protease cleaves non-phosphorylated peptide only and eliminates the FRET signal. Phosphorylation levels of each reaction are calculated using the ratio of coumarin emission (donor) over fluorescein emission (acceptor), for which high ratios indicate high phosphorylation and low ratios indicate low phosphorylation levels.
This method follows the same steps as Method 1 above, but utilises a shorter period of mixing of the test compound (105 minutes instead of 2 hours) with the GSK3-α protein.

d-U937 cells = experiment: Accumulation of β catenin in d-U937 cells, assay (m); format: cell-based, human
Description: U937 cells, a human monocytic cell line, are differentiated into macrophage-type cells by incubation with PMA; (100 ng/mL) for between 48 to 72 hr. The cells are then incubated with either final concentrations of test compound or vehicle for 18 hr. The induction of β-catenin by the test compounds is stopped by replacing the media with 4% formaldehyde solution. Endogenous peroxide activity is neutralised by incubating with quenching buffer (100 μL, 0.1% sodium azide, 1% H2O2 in PBS with 0.05% Tween-20) for 20 min. The cells are washed with washing buffer (200 μL; PBS containing 0.05% Tween-20) and incubated with blocking solution (200 μL; 5% milk in PBS) for 1 hr, re-washed with washing buffer (200 μL) and then incubated overnight with anti-β-catenin antibody solution (50 μL) in 1% BSA/PBS (BD, Oxford, UK).
After washing with washing buffer (3×200 μL; PBS containing 0.05% Tween-20), cells are incubated with an HRP-conjugated secondary antibody solution (100 μL) in 1% BSA/PBS (Dako, Cambridge, UK) and the resultant signal is determined colourimetrically (OD: 450 nm with a reference wavelength of 655 nm) using TMB substrate (50 μL; R&D Systems, Abingdon, UK). This reaction is stopped by addition of 1N H2SO4 solution (50 μL). Cells are then washed with washing buffer and 2% crystal violet solution (50 μL) is applied for 30 min. After washing with washing buffer (3×200 μL), 1% SDS (100 μL) is added to each well and the plates are shaken lightly for 1 hr prior to measuring the absorbance at 595 nm (Varioskan® Flash, Thermo-Fisher Scientific).
The measured OD450-655 readings are corrected for cell number by dividing the OD450-655 by the OD595 readings. The percentage induction for each well is calculated relative to vehicle, and the ratio of induction normalised in comparison with the induction produced by a standard control comprising of N-(4-(4-(3-(3-tert-butyl-1-p-tolyl-1H-pyrazol-5-yl)ureido)naphthalen-1-yloxy)pyridin-2-yl)-2-methoxyacetamide (1 μg/mL) which is defined as 100%.

p38 MAPKα = p38 MAPKα (Homo sapiens (Human), UniProt Q16539); experiment: p38 MAPKα enzyme inhibition (FRET, Z-LYTE), Method 2; format: biochemical
Chain of p38 MAPKα (Q16539 whole entry): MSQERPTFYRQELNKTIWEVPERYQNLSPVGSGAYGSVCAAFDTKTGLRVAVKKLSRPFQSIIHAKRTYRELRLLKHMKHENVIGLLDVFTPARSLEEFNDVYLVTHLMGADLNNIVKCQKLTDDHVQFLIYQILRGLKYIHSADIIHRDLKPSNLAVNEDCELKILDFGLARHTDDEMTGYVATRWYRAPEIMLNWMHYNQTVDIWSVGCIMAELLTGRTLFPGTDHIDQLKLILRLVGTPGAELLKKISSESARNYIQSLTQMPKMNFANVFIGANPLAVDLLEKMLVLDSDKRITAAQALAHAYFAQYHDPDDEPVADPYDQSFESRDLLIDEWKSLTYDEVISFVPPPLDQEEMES

PBMCs [2] = experiment: IL-2 and IFN gamma release in CD3/CD28 stimulated PBMC cells, assay (c); format: cell-based; details: Homo sapiens
Description: PBMCs from healthy subjects are separated from whole blood using a density gradient (Lymphoprep, Axis-Shield Healthcare). Cells are added to a 96 well plate pre-coated with a mixture of CD3/CD28 monoclonal antibodies (0.3 μg/mL eBioscience and 3 μg/mL BD Pharmingen respectively). Compound at the desired concentration is then added to the wells and the plate left for 3 days under normal tissue culture conditions. Supernatants are harvested and IL-2 and IFN gamma release determined by Sandwich ELISA (Duo-set, R&D System). The IC50 is determined from the dose response curve.

Syk = Syk (Homo sapiens (Human), UniProt P43405); experiment: Syk enzyme inhibition (FRET, Z-LYTE); format: biochemical
Description: as §1
(§3) The inhibitory activities of compounds of the invention against c-Src and Syk enzymes (Invitrogen), are evaluated in a similar fashion to that described hereinabove. The relevant enzyme (3000 ng/mL or 2000 ng/mL respectively, 2.5 μL) is incubated with the test compound (either 4 μg/mL, 0.4 μg/mL, 0.04 μg/mL, or 0.004 μg/mL, 2.5 μL each) for 2 hr at RT. The FRET peptides (8 μM, 2.5 μL), and appropriate ATP solutions (2.5 μL, 800 μM for c-Src, and 60 μM ATP for Syk) are then added to the enzymes/compound mixtures and incubated for 1 hr. Development reagent (protease, 5 μL) is added for 1 hr prior to detection in a fluorescence microplate reader (Varioskan® Flash, ThermoFisher Scientific).
as §2

c-Src = c-Src (Homo sapiens (Human), UniProt P12931); experiment: c-Src enzyme inhibition (FRET, Z-LYTE); format: biochemical
Chain of c-Src (P12931 whole entry, looked up): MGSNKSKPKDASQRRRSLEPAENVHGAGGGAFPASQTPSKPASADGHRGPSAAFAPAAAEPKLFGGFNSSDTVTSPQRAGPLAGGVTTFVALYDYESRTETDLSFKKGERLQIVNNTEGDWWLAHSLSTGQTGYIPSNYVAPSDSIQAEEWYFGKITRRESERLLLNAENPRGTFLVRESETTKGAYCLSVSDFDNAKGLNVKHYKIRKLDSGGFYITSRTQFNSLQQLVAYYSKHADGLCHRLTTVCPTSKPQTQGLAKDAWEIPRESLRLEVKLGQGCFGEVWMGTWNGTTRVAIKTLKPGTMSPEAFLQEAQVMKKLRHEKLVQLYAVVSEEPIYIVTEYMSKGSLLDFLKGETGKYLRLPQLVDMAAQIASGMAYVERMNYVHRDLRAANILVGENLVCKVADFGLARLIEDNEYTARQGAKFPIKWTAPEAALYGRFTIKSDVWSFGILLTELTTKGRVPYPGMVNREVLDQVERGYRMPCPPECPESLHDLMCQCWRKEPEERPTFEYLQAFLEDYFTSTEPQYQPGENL
Description: as §1
as §3, with “The” for “The inhibitory activities of compounds of the invention against c-Src and Syk enzymes (Invitrogen), are evaluated in a similar fashion to that described hereinabove. The”
as §2

[3] = 1 μg/mL test compound, normalised to reference N-(4-(4-(3-(3-tert-butyl-1-p-tolyl-1H-pyrazol-5-yl)ureido)naphthalen-1-yloxy)pyridin-2-yl)-2-methoxyacetamide
[4] = 5 μg/mL test compound, normalised to the same reference compound
[5] = 10 μg/mL test compound, normalised to the same reference compound
[6] = IFNγ, read-out: IC50 Values for Inhibition of Cytokine Release, PBMCs IFNγ

Structure (SMILES)	IC50 (PBMCs [1]) [nM]	IC50 (GSK3α) [nM]	% β-catenin induction (d-U937 cells; [3]) [%]	% β-catenin induction (d-U937 cells; [4]) [%]	% β-catenin induction (d-U937 cells; [5]) [%]	IC50 (p38 MAPKα) [nM]	IC50 (PBMCs [2]; [6]) [nM]	IC50 (Syk) [nM]	IC50 (PBMCs [2]; IL-2, read-out: IC50 Values for Inhibition of Cytokine Release, PBMCs IL-2) [nM]	IC50 (c-Src) [nM]
C#Cc1cc(Nc2nccc(Oc3ccc(NC(=O)Nc4cc(C(C)(C)C)nn4C(C)C)c4ccccc34)n2)cc(C(=O)NCCOCCOCCOC)c1 [13(a), 3-((4-((4-(3-(3-(tert-Butyl)-1-isopropyl-1H-pyrazol-5-yl)ureido)naphthalen-1-yl)oxy)pyrimidin-2-yl)amino)-5-ethynyl-N-(2-(2-(2-methoxyethoxy)ethoxy)ethyl)-benzamide]	5.4	8610								
C#Cc1cc(Nc2nccc(Oc3ccc(NC(=O)Nc4cc(C(C)(C)C)nn4CCC)c4ccccc34)n2)cc(C(=O)NCCOCCOCCOC)c1 [13(b), 3-((4-((4-(3-(3-(tert-Butyl)-1-propyl-1H-pyrazol-5-yl)ureido)naphthalen-1-yl)oxy)-pyrimidin-2-yl)amino)-5-ethynyl-N-(2-(2-(2-methoxyethoxy)ethoxy)ethyl)benzamide]	9.3	13100								
COc1cc(Nc2nccc(Oc3ccc(NC(=O)Nc4cc(C(C)(C)C)nn4C)c4ccccc34)n2)cc(S(=O)(=O)C2CC2)c1 [Example 3, 1-(3-(tert-Butyl)-1-methyl-1H-pyrazol-5-yl)-3-(4-((2-((3-(cyclopropylsulfonyl)-5-methoxy-phenyl)amino)pyrimidin-4-yl)oxy)naphthalen-1-yl)urea]	7.2	1940	−1	25	27	36	22			
C#Cc1cc(Nc2nccc(Oc3ccc(NC(=O)Nc4cc(C(C)(C)C)nn4C)c4ccccc34)n2)cc(C(=O)NCCOCCOC)c1 [Example 4, 3-((4-((4-(3-(3-(tert-Butyl)-1-methyl-1H-pyrazol-5-yl)ureido)naphthalen-1-yl)oxy)pyrimidin-2-yl)amino)-5-ethynyl-N-(2-(2-methoxyethoxy)ethyl)]	4.7	1010								
COCCOCCOCCOc1cc(Nc2cc(Oc3ccc(NC(=O)Nc4cc(C(C)(C)C)nn4C)c4ccccc34)ccn2)cc(OC)c1 [Example 5, 1-(3-(tert-Butyl)-1-methyl-1H-pyrazol-5-yl)-3-(4-((2-((3-methoxy-5-(2-(2-(2-methoxy-ethoxy)ethoxy)ethoxy)phenyl)amino)pyridin-4-yl)oxy)naphthalen-1-yl)]	2.8	7490	−5.5	−7	−2	160	13.3	> 1000	33.8	10
COCCOCCOCCOCCOCCOCCOCCOc1cc(Nc2nccc(Oc3ccc(NC(=O)Nc4cc(C(C)(C)C)nn4C)c4ccccc34)n2)cc(OC)c1 [Example 6, 1-(4-((2-((3-(2,5,8,11,14,17,20-Heptaoxadocosan-22-yloxy)-5-methoxyphenyl)amino)-pyrimidin-4-yl)oxy)naphthalen-1-yl)-3-(3-(tert-butyl)-1-methyl-1H-pyrazol-5-yl)urea]	10.7	1230								
C#Cc1cc(Nc2nccc(Oc3ccc(NC(=O)Nc4cc(C(C)(C)C)nn4C)c4ccccc34)n2)cc(C(=O)NCCOCCOCCOC)c1 [Example 7, 3-((4-((4-(3-(3-(tert-Butyl)-1-methyl-1H-pyrazol-5-yl)ureido)naphthalen-1-yl)oxy)pyrimidin-2-yl)amino)-5-ethynyl-N-(2-(2-(2-methoxyethoxy)ethoxy)ethyl)benzamide]	2.2	1850	1.5	6	9.5	11	11.8	> 1000		5
C#Cc1cc(Nc2nccc(Oc3ccc(NC(=O)Nc4cc(C(C)(C)C)nn4C(C)(C)C)c4ccccc34)n2)cc(C(=O)NCCOCCOCCOC)c1 [Example 12, 3-((4-((4-(3-(1,3-Di-tert-butyl-1H-pyrazol-5-yl)ureido)naphthalen-1-yl)oxy)pyrimidin-2-yl)amino)-5-ethynyl-N-(2-(2-(2-methoxyethoxy)ethoxy)ethyl)benzamide]	546	13100								
C#Cc1cc(Nc2nccc(Oc3ccc(NC(=O)Nc4cc(C(C)(C)C)nn4-c4ccc(C)cc4)c4ccccc34)n2)cc(C(=O)NCCN2CCOCC2)c1 [Reference Compound A, 3-((4-((4-(3-(3-(tert-Butyl)-1-(p-tolyl)-1H-pyrazol-5-yl)ureido)naphthalen-1-yl)oxy)-pyrimidin-2-yl)amino)-5-ethynyl-N-(2-morpholinoethyl)benzamide, reference compound]						54				
COCCOCCOCCOc1cc(Nc2nccc(Oc3ccc(NC(=O)Nc4cc(C(C)(C)C)nn4-c4ccc(C)cc4)c4ccccc34)n2)cc(OC)c1 [Reference Compound B, 1-(3-(tert-Butyl)-1-(p-tolyl)-1H-pyrazol-5-yl)-3-(4-((2-((3-methoxy-5-(2-(2-(2-methoxy-ethoxy)ethoxy)ethoxy)phenyl)amino)pyrimidin-4-yl)oxy)naphthalen-1-yl)urea, reference compound]						139				
